Laboratory results: ChEMBL document CHEMBL4312022, “Design, synthesis, and biological evaluation of ligustrazine - betulin amino-acid/dipeptide derivatives as anti-tumor agents” (Eur J Med Chem, 2020)

Key:
[1] = system: BGC-823; experiment: Antiproliferative activity against human BGC823 cells assessed as reduction in cell viability after 72 hrs by MTT assay; assay type: functional, cell-based; conditions: BGC-823, 72 h
[2] = system: HeLa; experiment: Antiproliferative activity against human HeLa cells assessed as reduction in cell viability after 72 hrs by MTT assay; assay type: functional, cell-based
[3] = system: MDCK; experiment: Cytotoxicity against MDCK cells assessed as reduction in cell viability after 72 hrs by MTT assay; assay type: cell-based; conditions: Canis lupus familiaris
[4] = system: HT-29; experiment: Antiproliferative activity against human HT-29 cells assessed as reduction in cell viability after 72 hrs by MTT assay; assay type: functional, cell-based; conditions: HT-29, 72 h
[5] = system: HepG2; experiment: Antiproliferative activity against human HepG2 cells assessed as reduction in cell viability after 72 hrs by MTT assay; assay type: functional, cell-based; conditions: HepG2, 72 h

SMILES | IC50 [1] [µM] | IC50 [2] [µM] | IC50 [3] [µM] | IC50 [4] [µM] | IC50 [5] [µM]
C=C(C)[C@@H]1CC[C@]2(COC(=O)c3nc(C)c(C)nc3C)CC[C@]3(C)[C@H](CC[C@@H]4[C@@]5(C)CC[C@H](O)C(C)(C)[C@@H]5CC[C@]43C)[C@@H]12 | 15 | 18.5 | > 20 | 16.3 | 13.6
C=C(C)[C@@H]1CC[C@]2(COC(=O)c3nc(C)c(C)nc3C)CC[C@]3(C)[C@H](CC[C@@H]4[C@@]5(C)CC[C@H](OC(=O)CNC(=O)[C@@H]6CCCN6C(C)=O)C(C)(C)[C@@H]5CC[C@]43C)[C@@H]12 | 8.15 | 10.1 | 19.8 | 12.3 | > 20
C=C(C)[C@@H]1CC[C@]2(COC(=O)c3nc(C)c(C)nc3C)CC[C@]3(C)[C@H](CC[C@@H]4[C@@]5(C)CC[C@H](OC(=O)CN(C)C(=O)[C@@H]6CCCN6C(C)=O)C(C)(C)[C@@H]5CC[C@]43C)[C@@H]12 | 7.93 | 10.5 | > 20 | 9.71 | > 20
C=C(C)[C@@H]1CC[C@]2(COC(=O)c3nc(C)c(C)nc3C)CC[C@]3(C)[C@H](CC[C@@H]4[C@@]5(C)CC[C@H](OC(=O)CN(C)C(=O)CNC(C)=O)C(C)(C)[C@@H]5CC[C@]43C)[C@@H]12 | 10.3 | 7.96 | > 20 | > 20 | > 20
C=C(C)[C@@H]1CC[C@]2(COC(=O)c3nc(C)c(C)nc3C)CC[C@]3(C)[C@H](CC[C@@H]4[C@@]5(C)CC[C@H](OC(=O)[C@@H](N)C(C)C)C(C)(C)[C@@H]5CC[C@]43C)[C@@H]12 | > 20 | > 20 | > 20 | > 20 | > 20
C=C(C)[C@@H]1CC[C@]2(COC(=O)c3nc(C)c(C)nc3C)CC[C@]3(C)[C@H](CC[C@@H]4[C@@]5(C)CC[C@H](OC(=O)[C@@H]6CCCN6C(=O)CCNC(C)=O)C(C)(C)[C@@H]5CC[C@]43C)[C@@H]12 | > 20 | 10.4 | > 20 | > 20 | > 20
C=C(C)[C@@H]1CC[C@]2(COC(=O)c3nc(C)c(C)nc3C)CC[C@]3(C)[C@H](CC[C@@H]4[C@@]5(C)CC[C@H](OC(=O)CNC)C(C)(C)[C@@H]5CC[C@]43C)[C@@H]12 | 8.23 | 7.88 | 14.6 | 7.92 | 5.93
C=C(C)[C@@H]1CC[C@]2(COC(=O)c3nc(C)c(C)nc3C)CC[C@]3(C)[C@H](CC[C@@H]4[C@@]5(C)CC[C@H](OC(=O)CNC(=O)CCNC(C)=O)C(C)(C)[C@@H]5CC[C@]43C)[C@@H]12 | 7.62 | 6.72 | 15.8 | > 20 | > 20
C=C(C)[C@@H]1CC[C@]2(COC(=O)c3nc(C)c(C)nc3C)CC[C@]3(C)[C@H](CC[C@@H]4[C@@]5(C)CC[C@H](OC(=O)[C@@H]6CCC(=O)N6)C(C)(C)[C@@H]5CC[C@]43C)[C@@H]12 | 8.62 | 19.4 | 16.7 | 15.3 | 16.5
C=C(C)[C@@H]1CC[C@]2(COC(=O)c3nc(C)c(C)nc3C)CC[C@]3(C)[C@H](CC[C@@H]4[C@@]5(C)CC[C@H](OC(=O)[C@H](C)N)C(C)(C)[C@@H]5CC[C@]43C)[C@@H]12 | 7.83 | 9.22 | 18.5 | 9.29 | 10.1
C=C(C)[C@@H]1CC[C@]2(COC(=O)c3nc(C)c(C)nc3C)CC[C@]3(C)[C@H](CC[C@@H]4[C@@]5(C)CC[C@H](OC(=O)[C@@H](N)Cc6ccccc6)C(C)(C)[C@@H]5CC[C@]43C)[C@@H]12 | > 20 | > 20 | > 20 | > 20 | > 20
C=C(C)[C@@H]1CC[C@]2(COC(=O)c3nc(C)c(C)nc3C)CC[C@]3(C)[C@H](CC[C@@H]4[C@@]5(C)CC[C@H](OC(=O)[C@@H](N)CC(C)C)C(C)(C)[C@@H]5CC[C@]43C)[C@@H]12 | > 20 | > 20 | > 20 | > 20 | > 20
C=C(C)[C@@H]1CC[C@]2(COC(=O)c3nc(C)c(C)nc3C)CC[C@]3(C)[C@H](CC[C@@H]4[C@@]5(C)CC[C@H](OC(=O)[C@@H]6CCCN6C(=O)CNC(C)=O)C(C)(C)[C@@H]5CC[C@]43C)[C@@H]12 | 18.9 | 17.9 | 18.9 | 14.7 | 18.4
C=C(C)[C@@H]1CC[C@]2(CO)CC[C@]3(C)[C@H](CC[C@@H]4[C@@]5(C)CC[C@H](O)C(C)(C)[C@@H]5CC[C@]43C)[C@@H]12 [BETULIN] | > 20 | 12.2 | > 20 | > 20 | > 20
C=C(C)[C@@H]1CC[C@]2(COC(=O)c3nc(C)c(C)nc3C)CC[C@]3(C)[C@H](CC[C@@H]4[C@@]5(C)CC[C@H](OC(=O)CNC(=O)CNC(C)=O)C(C)(C)[C@@H]5CC[C@]43C)[C@@H]12 | 7.85 | > 20 | 14.5 | 11.2 | > 20
C=C(C)[C@@H]1CC[C@]2(COC(=O)c3nc(C)c(C)nc3C)CC[C@]3(C)[C@H](CC[C@@H]4[C@@]5(C)CC[C@H](OC(=O)[C@@H]6CCCN6C(=O)[C@@H]6CCCN6C(C)=O)C(C)(C)[C@@H]5CC[C@]43C)[C@@H]12 | > 20 | 11.1 | > 20 | > 20 | > 20
C=C(C)[C@@H]1CC[C@]2(COC(=O)c3nc(C)c(C)nc3C)CC[C@]3(C)[C@H](CC[C@@H]4[C@@]5(C)CC[C@H](OC(=O)[C@@H](N)[C@@H](C)CC)C(C)(C)[C@@H]5CC[C@]43C)[C@@H]12 | > 20 | > 20 | > 20 | 16.6 | > 20
C=C(C)[C@@H]1CC[C@]2(COC(=O)c3nc(C)c(C)nc3C)CC[C@]3(C)[C@H](CC[C@@H]4[C@@]5(C)CC[C@H](OC(=O)[C@@H]6CCCN6)C(C)(C)[C@@H]5CC[C@]43C)[C@@H]12 | 10.4 | 17.2 | 17.6 | 15 | 19.6
C=C(C)[C@@H]1CC[C@]2(COC(=O)c3nc(C)c(C)nc3C)CC[C@]3(C)[C@H](CC[C@@H]4[C@@]5(C)CC[C@H](OC(=O)CN(C)C(=O)CCNC(C)=O)C(C)(C)[C@@H]5CC[C@]43C)[C@@H]12 | 6.94 | 4.13 | 18.6 | 12.5 | 11
